Experimental data as given in ChEMBL document CHEMBL4321850, “Targeting Aryl hydrocarbon receptor for next-generation immunotherapies: Selective modulators (SAhRMs) versus rapidly metabolized ligands (RMAhRLs)” (Eur J Med Chem, 2020).
Blank lines part the entries; values can stand above or below the molecule they belong to.

Legend:
[1] = biological target: T1, Aryl hydrocarbon receptor (Mus musculus, UniProt P30561); experiment: Displacement of [3H]TCDD from mouse AhR
T1 sequence (P30561 whole entry): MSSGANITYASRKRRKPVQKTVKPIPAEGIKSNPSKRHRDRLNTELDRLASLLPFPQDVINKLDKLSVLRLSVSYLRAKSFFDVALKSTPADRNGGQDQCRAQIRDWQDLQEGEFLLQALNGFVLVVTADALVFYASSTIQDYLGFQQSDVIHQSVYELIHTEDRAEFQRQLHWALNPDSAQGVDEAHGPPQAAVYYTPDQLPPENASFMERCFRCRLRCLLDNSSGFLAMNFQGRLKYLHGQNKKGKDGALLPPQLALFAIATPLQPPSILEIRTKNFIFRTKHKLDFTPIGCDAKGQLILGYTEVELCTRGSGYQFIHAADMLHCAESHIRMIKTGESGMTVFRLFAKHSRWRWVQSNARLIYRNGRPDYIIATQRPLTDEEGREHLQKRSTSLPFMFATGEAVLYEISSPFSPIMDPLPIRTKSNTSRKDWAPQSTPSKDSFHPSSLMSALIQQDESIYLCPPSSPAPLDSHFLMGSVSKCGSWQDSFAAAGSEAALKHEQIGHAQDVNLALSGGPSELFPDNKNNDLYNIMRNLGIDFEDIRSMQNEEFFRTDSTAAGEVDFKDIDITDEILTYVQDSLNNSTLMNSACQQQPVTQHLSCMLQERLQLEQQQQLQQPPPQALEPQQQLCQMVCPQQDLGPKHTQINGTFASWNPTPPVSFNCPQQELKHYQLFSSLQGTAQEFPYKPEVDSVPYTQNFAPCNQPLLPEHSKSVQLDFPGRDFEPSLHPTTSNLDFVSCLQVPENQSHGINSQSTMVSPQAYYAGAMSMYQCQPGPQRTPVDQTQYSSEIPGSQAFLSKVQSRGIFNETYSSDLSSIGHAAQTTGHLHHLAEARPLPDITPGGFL

[2] = biological target: T1, Aryl hydrocarbon receptor; experiment: Displacement of 2-azido-3-[125I]7,8-dibromodibenzo-pdioxin from C57BL/6J mouse liver AhR incubated for 20 mins by gamma counting based autoradiography
[3] = biological target: T2, Aryl hydrocarbon receptor (Homo sapiens, UniProt P35869); experiment: Displacement of [3H] 3-MC from AhR (unknown origin)
T2 sequence (P35869 whole entry): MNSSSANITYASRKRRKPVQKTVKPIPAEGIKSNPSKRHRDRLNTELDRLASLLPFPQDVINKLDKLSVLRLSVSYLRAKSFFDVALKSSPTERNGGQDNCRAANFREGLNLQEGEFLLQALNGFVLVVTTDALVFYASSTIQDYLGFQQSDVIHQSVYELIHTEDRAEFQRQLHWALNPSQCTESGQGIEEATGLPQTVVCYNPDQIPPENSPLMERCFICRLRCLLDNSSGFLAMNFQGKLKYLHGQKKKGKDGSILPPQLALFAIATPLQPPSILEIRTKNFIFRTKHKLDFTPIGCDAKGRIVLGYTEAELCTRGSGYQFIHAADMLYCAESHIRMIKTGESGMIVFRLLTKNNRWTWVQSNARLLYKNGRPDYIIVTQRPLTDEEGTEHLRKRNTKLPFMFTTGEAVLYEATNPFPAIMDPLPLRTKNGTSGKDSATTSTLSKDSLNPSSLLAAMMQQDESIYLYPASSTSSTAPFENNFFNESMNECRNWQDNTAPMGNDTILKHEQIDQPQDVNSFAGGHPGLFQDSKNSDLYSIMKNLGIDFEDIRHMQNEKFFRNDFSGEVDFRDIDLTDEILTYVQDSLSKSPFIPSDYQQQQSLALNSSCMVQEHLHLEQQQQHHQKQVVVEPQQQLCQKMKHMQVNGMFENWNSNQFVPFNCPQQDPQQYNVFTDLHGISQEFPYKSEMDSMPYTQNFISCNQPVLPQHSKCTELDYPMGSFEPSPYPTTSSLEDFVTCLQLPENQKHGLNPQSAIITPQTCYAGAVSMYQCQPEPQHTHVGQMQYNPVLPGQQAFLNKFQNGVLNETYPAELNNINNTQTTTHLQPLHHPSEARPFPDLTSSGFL

[4] = biological target: T2, Aryl hydrocarbon receptor; experiment: Binding affinity to AhR (unknown origin)
[5] = biological target: T2, Aryl hydrocarbon receptor; experiment: Binding affinity to AhR (unknown origin) relative to TCDD
[6] = biological target: T1, Aryl hydrocarbon receptor; experiment: Displacement of 2-azido-3-[125I]7,8-dibromodibenzo-pdioxin from C57BL/6J mouse liver AhR
[7] = biological target: T1, Aryl hydrocarbon receptor; experiment: Displacement of 2-azido-3-[125I]7,8-dibromodibenzo-pdioxin from C57BL/6J mouse liver AhR relative to TCDD
[8] = biological target: T2, Aryl hydrocarbon receptor; experiment: Inhibition of AhR (unknown origin)

SMILES: COC(=O)c1csc(C(=O)c2c[nH]c3ccccc23)n1
Kd [1]: 3 nM

SMILES: Cc1cc(Cl)cc2c1oc1cc(Cl)cc(Cl)c12
Kd [4]: 0.13 nM | EC50 [5]: 49 nM

SMILES: Nc1ccccc1C(=O)C[C@H](N)C(=O)O [L-KYNURENINE]
Ki [8]: 21600 nM

More lines, now with the values ahead:

IC50 [2]: 21 nM
SMILES: COc1ccc(-c2cc(=O)c3ccc4ccccc4c3o2)cc1OC

IC50 [3]: 2.6 nM
SMILES: O=c1c2cccc3cccc(c32)c2nc3ccc(Cl)cc3n12

IC50 [2]: 25 nM
SMILES: O=c1cc(-c2ccccc2)oc2c1ccc1ccccc12 [ALPHA-NAPHTHOFLAVONE]

Kd [6]: 90 nM | EC50 [7]: 78000 nM
SMILES: c1ccc2c(Cc3c[nH]c4ccccc34)c[nH]c2c1 [ARUNDINE]
